# According to ChEMBL document CHEMBL3217726, “Asymmetric synthesis of potent chroman-based Rho kinase (ROCK-II) inhibitors” (Medchemcomm, 2011):
# How the values were obtained:
# [1] = Inhibition of PKA (unknown origin) after 70 mins by luminescence assay; parameters: species or system Homo sapiens
# [2] = target: Rho-associated protein kinase 2 (Rattus norvegicus, UniProt Q62868); test: Inhibition of ROCK2-mediated myosin light chain bis-phosphorylation in rat A7r5 cells after 1 hr by TO-PRO-3 iodide staining-based assay; assay type: cell-based
# Chain of Rho-associated protein kinase 2 (Rattus norvegicus, UniProt Q62868) (Q62868 whole entry): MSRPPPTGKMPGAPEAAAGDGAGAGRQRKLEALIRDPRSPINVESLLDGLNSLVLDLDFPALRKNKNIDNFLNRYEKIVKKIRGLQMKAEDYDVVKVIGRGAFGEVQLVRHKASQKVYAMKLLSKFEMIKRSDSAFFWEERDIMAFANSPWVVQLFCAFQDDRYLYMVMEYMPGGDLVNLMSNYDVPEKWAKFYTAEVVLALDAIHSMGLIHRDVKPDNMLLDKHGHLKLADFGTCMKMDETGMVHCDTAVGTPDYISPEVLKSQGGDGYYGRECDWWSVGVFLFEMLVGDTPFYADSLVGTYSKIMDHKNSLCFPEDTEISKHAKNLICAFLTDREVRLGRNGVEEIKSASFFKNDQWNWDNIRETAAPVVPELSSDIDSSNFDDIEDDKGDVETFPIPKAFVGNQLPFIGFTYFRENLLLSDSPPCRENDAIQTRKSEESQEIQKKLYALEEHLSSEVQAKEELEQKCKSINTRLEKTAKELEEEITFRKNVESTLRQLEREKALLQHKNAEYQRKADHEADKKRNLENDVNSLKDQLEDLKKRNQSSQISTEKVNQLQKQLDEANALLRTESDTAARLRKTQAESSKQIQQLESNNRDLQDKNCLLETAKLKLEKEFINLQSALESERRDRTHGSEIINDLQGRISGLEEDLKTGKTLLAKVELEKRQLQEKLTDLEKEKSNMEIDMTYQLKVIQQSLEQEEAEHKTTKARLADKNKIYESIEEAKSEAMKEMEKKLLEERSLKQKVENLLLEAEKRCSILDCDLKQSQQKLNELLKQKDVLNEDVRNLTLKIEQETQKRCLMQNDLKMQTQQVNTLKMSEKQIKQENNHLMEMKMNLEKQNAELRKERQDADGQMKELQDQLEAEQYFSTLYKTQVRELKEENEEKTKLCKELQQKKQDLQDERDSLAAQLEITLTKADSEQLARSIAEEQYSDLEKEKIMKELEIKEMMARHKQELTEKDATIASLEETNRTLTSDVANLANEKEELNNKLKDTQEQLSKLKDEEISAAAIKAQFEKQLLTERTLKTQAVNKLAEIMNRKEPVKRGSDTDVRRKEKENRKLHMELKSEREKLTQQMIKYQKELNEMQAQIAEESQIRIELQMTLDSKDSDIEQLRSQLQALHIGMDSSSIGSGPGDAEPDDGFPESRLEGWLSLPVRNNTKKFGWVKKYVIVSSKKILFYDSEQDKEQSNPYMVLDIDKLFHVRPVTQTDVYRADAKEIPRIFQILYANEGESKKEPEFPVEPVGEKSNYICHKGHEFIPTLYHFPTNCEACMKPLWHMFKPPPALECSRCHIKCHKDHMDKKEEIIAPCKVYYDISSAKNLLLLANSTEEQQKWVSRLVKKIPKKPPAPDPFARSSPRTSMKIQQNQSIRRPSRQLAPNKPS
# [3] = target: Rho-associated protein kinase 2 (Homo sapiens, UniProt O75116); test: Inhibition of ROCK2 (unknown origin) after 4 hrs by HTRF assay
# Chain of Rho-associated protein kinase 2 (Homo sapiens, UniProt O75116) (O75116 whole entry): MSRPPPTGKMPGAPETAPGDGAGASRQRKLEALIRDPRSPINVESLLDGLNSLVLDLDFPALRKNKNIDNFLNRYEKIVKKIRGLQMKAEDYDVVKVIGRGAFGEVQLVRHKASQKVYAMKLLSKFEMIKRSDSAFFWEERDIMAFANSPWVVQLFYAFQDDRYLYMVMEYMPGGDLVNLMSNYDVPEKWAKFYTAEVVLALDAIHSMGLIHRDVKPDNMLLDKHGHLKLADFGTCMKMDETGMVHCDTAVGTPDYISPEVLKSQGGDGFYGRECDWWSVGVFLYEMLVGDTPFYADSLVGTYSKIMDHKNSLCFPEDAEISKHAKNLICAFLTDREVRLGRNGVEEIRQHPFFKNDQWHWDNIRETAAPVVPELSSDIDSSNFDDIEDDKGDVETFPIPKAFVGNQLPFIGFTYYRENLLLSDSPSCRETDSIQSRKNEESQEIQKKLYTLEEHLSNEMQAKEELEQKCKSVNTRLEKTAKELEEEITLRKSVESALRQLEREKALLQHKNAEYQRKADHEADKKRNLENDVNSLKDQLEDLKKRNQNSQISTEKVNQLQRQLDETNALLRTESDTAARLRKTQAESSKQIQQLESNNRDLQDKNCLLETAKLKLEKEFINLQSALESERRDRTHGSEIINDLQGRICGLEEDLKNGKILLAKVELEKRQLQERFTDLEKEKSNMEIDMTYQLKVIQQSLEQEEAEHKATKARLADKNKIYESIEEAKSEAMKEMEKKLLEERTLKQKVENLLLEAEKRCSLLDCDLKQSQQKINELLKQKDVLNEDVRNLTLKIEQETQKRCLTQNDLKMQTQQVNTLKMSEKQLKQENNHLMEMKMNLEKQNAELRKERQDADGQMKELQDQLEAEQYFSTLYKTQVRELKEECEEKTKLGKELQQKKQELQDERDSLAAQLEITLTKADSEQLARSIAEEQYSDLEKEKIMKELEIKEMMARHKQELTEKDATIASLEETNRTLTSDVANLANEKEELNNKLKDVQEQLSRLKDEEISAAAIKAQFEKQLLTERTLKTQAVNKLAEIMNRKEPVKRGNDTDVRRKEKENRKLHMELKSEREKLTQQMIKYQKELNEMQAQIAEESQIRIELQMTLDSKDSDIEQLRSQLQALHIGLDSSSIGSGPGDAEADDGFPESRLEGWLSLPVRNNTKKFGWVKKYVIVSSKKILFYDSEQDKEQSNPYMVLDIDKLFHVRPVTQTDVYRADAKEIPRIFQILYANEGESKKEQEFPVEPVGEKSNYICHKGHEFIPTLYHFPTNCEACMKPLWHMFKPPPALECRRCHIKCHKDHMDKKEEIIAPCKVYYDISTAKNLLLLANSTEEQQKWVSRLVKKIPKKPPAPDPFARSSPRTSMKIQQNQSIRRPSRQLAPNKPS
# [4] = target: Serine/threonine-protein kinase MRCK alpha (Homo sapiens, UniProt Q5VT25); test: Inhibition of MRCK-alpha (unknown origin) using LCB-AKRRRLSSLRA-NH2 as substrate after 75 mins by luminescence assay
# Chain of Serine/threonine-protein kinase MRCK alpha (Q5VT25 whole entry): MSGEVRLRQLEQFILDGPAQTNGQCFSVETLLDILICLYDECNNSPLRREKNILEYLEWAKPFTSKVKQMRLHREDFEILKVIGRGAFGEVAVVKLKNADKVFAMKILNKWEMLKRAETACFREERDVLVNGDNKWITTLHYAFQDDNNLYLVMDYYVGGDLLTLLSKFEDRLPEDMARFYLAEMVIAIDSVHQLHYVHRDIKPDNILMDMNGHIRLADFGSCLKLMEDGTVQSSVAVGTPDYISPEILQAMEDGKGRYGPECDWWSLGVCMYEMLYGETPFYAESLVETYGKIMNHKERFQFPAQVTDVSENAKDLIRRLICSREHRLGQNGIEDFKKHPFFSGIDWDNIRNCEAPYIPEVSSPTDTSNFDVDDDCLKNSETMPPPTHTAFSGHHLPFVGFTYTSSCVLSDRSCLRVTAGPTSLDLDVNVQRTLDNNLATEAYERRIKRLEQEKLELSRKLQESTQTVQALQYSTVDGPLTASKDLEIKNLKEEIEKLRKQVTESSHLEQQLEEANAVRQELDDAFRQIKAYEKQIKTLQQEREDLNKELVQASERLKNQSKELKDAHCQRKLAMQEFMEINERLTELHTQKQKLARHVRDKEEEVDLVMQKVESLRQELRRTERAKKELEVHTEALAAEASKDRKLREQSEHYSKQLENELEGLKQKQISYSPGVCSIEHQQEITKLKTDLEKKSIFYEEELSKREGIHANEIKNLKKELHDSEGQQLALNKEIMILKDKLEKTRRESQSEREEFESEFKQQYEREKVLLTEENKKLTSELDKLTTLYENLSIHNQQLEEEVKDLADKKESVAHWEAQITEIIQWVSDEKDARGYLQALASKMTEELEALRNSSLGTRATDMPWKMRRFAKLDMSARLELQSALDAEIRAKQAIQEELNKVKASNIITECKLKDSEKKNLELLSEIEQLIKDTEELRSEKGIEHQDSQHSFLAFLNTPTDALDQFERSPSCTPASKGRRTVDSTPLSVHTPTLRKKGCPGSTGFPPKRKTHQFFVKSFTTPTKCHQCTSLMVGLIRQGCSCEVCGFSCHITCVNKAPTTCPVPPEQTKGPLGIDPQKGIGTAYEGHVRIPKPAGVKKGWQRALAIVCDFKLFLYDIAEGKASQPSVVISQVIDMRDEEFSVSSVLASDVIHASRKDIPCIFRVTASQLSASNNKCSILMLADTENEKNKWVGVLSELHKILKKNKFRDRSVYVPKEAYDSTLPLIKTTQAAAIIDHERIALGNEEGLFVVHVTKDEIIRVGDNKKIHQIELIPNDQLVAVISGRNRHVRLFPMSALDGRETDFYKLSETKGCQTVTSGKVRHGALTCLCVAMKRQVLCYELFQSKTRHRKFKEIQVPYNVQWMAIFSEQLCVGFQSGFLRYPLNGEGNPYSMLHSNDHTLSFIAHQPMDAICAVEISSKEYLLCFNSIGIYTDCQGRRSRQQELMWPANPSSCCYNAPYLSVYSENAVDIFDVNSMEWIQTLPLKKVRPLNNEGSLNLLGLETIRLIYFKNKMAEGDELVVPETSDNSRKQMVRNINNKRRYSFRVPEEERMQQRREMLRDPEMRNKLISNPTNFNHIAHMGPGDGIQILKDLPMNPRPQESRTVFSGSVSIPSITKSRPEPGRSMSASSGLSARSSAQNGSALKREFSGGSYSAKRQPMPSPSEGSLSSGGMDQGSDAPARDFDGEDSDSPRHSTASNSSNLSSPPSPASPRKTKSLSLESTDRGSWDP
# [5] = organism: Homo sapiens; test: Selectivity ratio of IC50 for MRCK-alpha (unknown origin) to IC50 for ROCK2 (unknown origin)
# [6] = organism: Homo sapiens; test: Selectivity ratio of IC50 for PKA (unknown origin) to IC50 for ROCK2 (unknown origin)
Compound,IC50 [1],IC50 [2],IC50 [3],IC50 [4],Ratio IC50 [5],Ratio IC50 [6]
COc1ccc2c(c1)C[C@@H](C(=O)Nc1ccc(-c3cn[nH]c3)cc1OCCN1CCCC1)CO2,> 20000 nM,411 nM,30 nM,> 20000 nM,–,–
COc1ccc2c(c1)C[C@@H](C(=O)Nc1ccc(-c3cn[nH]c3)cc1OCCN(C)C)CO2,> 20000 nM,43 nM,–,–,–,–
COc1ccc2c(c1)C[C@H](C(=O)Nc1ccc(-c3cn[nH]c3)cc1OCCCO)CO2,652 nM,< 4 nM,< 1 nM,74 nM,–,–
COc1ccc2c(c1)C[C@@H](C(=O)Nc1ccc(-c3cn[nH]c3)cc1OCCCO)CO2,> 20000 nM,519 nM,35 nM,–,–,–
COc1ccc2c(c1)C[C@H](C(=O)Nc1ccc(-c3cn[nH]c3)cc1OCCN(C)C)CO2,1740 nM,< 4 nM,–,–,–,–

# Results, then the compound that gave them:
IC50 [1],IC50 [2],IC50 [3],IC50 [4],Ratio IC50 [5],Ratio IC50 [6],Compound
> 20000 nM,900 nM,34 nM,–,–,–,COc1ccc2c(c1)C[C@@H](C(=O)Nc1ccc(-c3cn[nH]c3)cc1O[C@H]1CCN(C)C1)CO2
9600 nM,< 4 nM,< 1 nM,1270 nM,> 1200,> 9500,COc1ccc2c(c1)C[C@H](C(=O)Nc1ccc(-c3cn[nH]c3)cc1OCCN1CCCC1)CO2
> 20000 nM,32 nM,14 nM,> 20000 nM,–,–,COc1ccc2c(c1)C[C@@H](C(=O)Nc1ccc(-c3cn[nH]c3)cc1O[C@@H]1CCN(C)C1)CO2
3460 nM,< 4 nM,< 1 nM,261 nM,–,–,COc1ccc2c(c1)C[C@H](C(=O)Nc1ccc(-c3cn[nH]c3)cc1O[C@@H]1CCN(C)C1)CO2
7380 nM,< 4 nM,< 1 nM,294 nM,–,–,COc1ccc2c(c1)C[C@H](C(=O)Nc1ccc(-c3cn[nH]c3)cc1O[C@H]1CCN(C)C1)CO2
